Columns and labels:
[1] = test system: AMP-dependent protein kinase (AMPK); test: AMPK phosphorylation (Phospho-AMPKα Thr172 Western blot) in C2C12 myocytes; assay type: cell-based, mice
Description: C2C12 skeletal myoblast cell line was purchased from the Food Industry Research and Development Institute (Hsinchu, Taiwan). The C2C12 cell line was a cell line obtained from culturing the leg skeletal muscle of adult C3H mice in a cell incubator under 95% […], 5% CO2, and 37° C. The cells were cultured in a DMEM medium (Gibco/Invitrogen, Carlsbad, Calif.) containing 4.5 mg/mL glucose, 10% fetal bovine serum (FBS; Gibco/Invitrogen, Carlsbad, Calif.), and an antibiotic solution (with final concentrations of penicillin=100 IU/mL and streptomycin=100 μg/mL). When the C2C12 myoblast cells have proliferated to cover seven-tenths of the area in the petri dish, the fetal bovine serum was replaced by 2% horse serum (Gibco/Invitrogen, Carlsbad, Calif.) so as to induce the C2C12 myoblast cells to become the multi-nuclei myocytes. The C2C12 myoblast cells differentiated into myocytes in 4 days, and the culture medium of the cells was replaced with no-serum DMEM 24 hours before the experiments so as to reduce metabolism of the cells.
The C2C12 myocytes were treated respectively with 1 μM, 3 μM and 10 μM salsolinol and reticuline for 5 and 15 minutes. Then the C2C12 myocytes were rinsed with PBS buffer solution, and RIPA buffer solution containing protease inhibitors (20 mM Tris-HCl (pH 7.4), 100 mM NaCl, 1 mM EDTA, 1 mM EGTA, 0.1% SDS, 0.5% sodium deoxycholate, 1% NP-40, and 100X protease inhibitor cocktail) was added into the cells. The cells were collected and centrifuged on ice. Then, the concentrations of the supernatant samples were adjusted to be the same.
The supernatant samples were put through vertical electrophoresis isolation with 8% SDS-PAGE, and the isolated proteins were transferred onto a PVDF blotting membrane. After blotting was completed, the PVDF blotting membrane was removed and blocked for 1 hour under room temperature with a blocking buffer of TBST (Tris-buffered saline with Tween-20) with 5% non-fat milk. Then, the PVDF blotting membrane was placed into a 5% BSA and TBST solution containing the primary monoclonal antibodies Phospho-AMPKα (Thr172) (Cell Signaling) (1:1000) and AMPKα […] (Cell Signaling) (1:1000), respectively, and the primary immunoblotting reaction was performed under 4° C. Then, the PVDF blotting membrane was rinsed 3 times with TBST, and a TBST solution containing the secondary antibody goat anti-rabbit IgG (Perkin Elmer) (1:10000) was added to perform the secondary reaction for one hour under room temperature. Finally, the membrane was rinsed 3 times with TBST before ECL (enhanced chemiluminescence) was added to present color.

[2] = test system: insulin secretion; test: effect on insulin secretion compared with Glibenclamide; details: as opposed to Glibenclamide
[3] = test system: ICR mice with Type II diabetes induced by high-sugar high-lipid food; test: oral glucose tolerance test (OGTT) in ICR mice fed with high-lipid food and high fructose syrup; assay type: in vivo
Description: (§1) ICR mice were each fed with high-lipid food and high fructose syrup for 2 weeks. Then, salsolinol (10 mg/Kg/day) and Glibenclamide (10 mg/Kg) were administered on day 1. After 30 minutes, glucose (1 g/Kg) was orally administered and blood was taken from the mice immediately thereafter (this time point was designated as 0 minute). Blood was also taken later at 30, 60, 90, 120 and 150 minutes, and the blood glucose levels in the serum were determined
as §1, with “weeks, and then administered with salsolinol (10 mg/Kg/day) and Glibenclamide (10 mg/Kg) for 14 consecutive days. Afterwards,” for “weeks. Then,”, “again administered, and” for “administered on day 1. After 30 minutes,”, “administered after 30 minutes” for “administered”, “determined.” for “determined”
The effect of blood glucose reduction was evaluated with the oral glucose tolerance test (OGTT). […] Blood was also taken later at 30, 60, 90, 120 and 150 minutes, and the blood glucose levels in the serum were determined after centrifugation.

Compound | AMPK phosphorylation relative to control cells ([1]; 10 μM, treated for 5 minutes) | effect on insulin secretion [2] | long-term reduction of blood glucose (OGTT) ([3]; 10 mg/Kg/day for 14 consecutive days, glucose 1 g/Kg orally after 30 minutes, compared with Glibenclamide 10 mg/Kg (FIG. 4)) | fast reduction of blood glucose (OGTT) ([3]; 10 mg/Kg/day, administration on day 1, glucose 1 g/Kg orally after 30 minutes, compared with Glibenclamide 10 mg/Kg (FIG. 3)) | AMPK phosphorylation relative to control cells ([1]; 3 μM, treated for 5 minutes) | AMPK phosphorylation relative to control cells ([1]; 3 μM, treated for 15 minutes) | AMPK phosphorylation relative to control cells ([1]; 10 μM, treated for 15 minutes)
CC1NCCc2cc(O)c(O)cc21 (centres unmarked) [salsolinol] | 1.66 times of that in the control cells | lower effect on insulin secretion | blood glucose-reduction effect similar to that of Glibenclamide | blood glucose-reduction effect similar to that of Glibenclamide | – | – | –
COc1ccc(C[C@H]2c3cc(O)c(OC)cc3CCN2C)cc1O [reticuline] | 2.05 times of that in the control cells | – | – | – | 1.52 times of that in the control cells | 1.04 times of that in the control cells | 2.07 times of that in the control cells

Reference: patent US20150335634A1, “ISOQUINOLINE ALKALOID DERIVATIVE FOR ACTIVATING AMP-DEPENDENT PROTEIN KINASE” (ZIH YUAN TANG Biotechnology Co., Ltd, priority 2014, published 2015)
